In patent US11453632B2, “1-phenyl-2-phenylethane derivative” (KAO CORPORATION, priority 2018, dated 2022):

Key:
ERβ = molecular target: T1, ERβ (Homo sapiens, UniProt Q92731); experiment: Ability to activate transcription mediated by ERβ (pcDNA3-ERβ, pERE luciferase, HEK293 cells); assay type: cell-based; settings: negative control 0.001475
T1 construct: host or cells: HEK293
Procedure: 1) Experimental Method (Measurement of Transcriptional Activity Mediated by ERs)
HEK293 cells were inoculated at a cell density of 4.0×10^4 cells/well to a 96-well plate. After 12 hours therefrom, the medium was replaced with a culture solution (DMEM containing 5% (v/v) charcoal-treated serum). The cells were cotransfected with pcDNA3-ERα or pcDNA3-ERβ (Promega Corp.) and pERE and pRL-CMV (Promega Corp.) using Lipofectamine 2000 (Invitrogen Corp.) according to the protocol attached to the product. 24 hours after transfection, the medium was replaced with a culture medium containing a test sample, followed by culture for another 24 hours. Then, luciferase activity was measured using Dual-Glo™ Luciferase Assay System (Promega Corp.) according to the attached protocol. The luminescence intensity of firefly luciferase (index for the ability to activate transcription mediated by ERE) was divided by the luminescence intensity of Renilla reniformis luciferase (index for the transfection efficiency of the plasmids) to calculate a relative light unit (RLU).

[1] = system: tail skin temperature of ovariectomized rat; experiment: Tail skin temperature in ovariectomized (OVX) rat; assay type: in vivo
Procedure: 8-week-old female Crl:CD (SD) rats were obtained from Charles River Laboratories Japan, Inc. and individually identified by the ear punching method on the receipt date. Then, an acclimatization period was established for 1 week. The animals were raised in a rearing room under a set environment involving a temperature of 22±3° C., a humidity of 50±20%, air ventilation from 13 to 17 times/hour, and a lighting time from 8:00 to 20:00. During the acclimatization period, the rats were allowed to freely ingest solid feed CRF-1 (Oriental Yeast Co., Ltd.). Since the feeding with CRF-1, the rats were allowed to freely ingest customized feed AIN-93G (Oriental Yeast Co., Ltd.) free from components derived from soybeans.
1-2) Sham Surgery and Oophorectomy Surgery (OVX)
On the end date of acclimatization and the following day, the flank cavity was opened under isoflurane anesthesia to harvest the right and left ovaries including fallopian tubes. Other non-OVX rats were subjected to only opening and suture (sham surgery). Immediately thereafter, an antibiotic was subcutaneously administered at a dose of 100 μl/animal. After the surgery, the sham surgery or OVX animals were given customized feed and raised for approximately 1 week.
1-3) Acclimatization to Skin Temperature Measurement Environment […]
Before administration of a test substance and from 12:00 to 3:00 (dark phase) of 3, 5, 7, 14, and 21 days after the start of administration, the rats were placed in restrainers without anesthesia, and skin temperatures were measured at a site 3 cm on the tip side from the tail root using the infrared radiation thermometer. […]
Skin temperatures differed largely among individuals, and the Smirnov-Grubbs test was conducted in order to exclude outliers beforehand. Results of measuring tail skin temperatures and results of measuring uterus weights were statistically analyzed by testing using the Dunnett's test.

[2] = system: prostate of testosterone-induced prostatic hyperplasia rat; experiment: Efficacy on prostate in testosterone-induced prostatic hyperplasia rat; assay type: in vivo; settings: testosterone 3 mg/kg/day plus test substance 0.1 or 1 mg/kg body weight/day, subcutaneous osmotic pump, 28 days, vs testosterone alone
Source text: 12-week-old male Slc:SD (SPF) rats were obtained from Japan SLC, Inc. An acclimatization period was established for 1 week after receipt. During the acclimatization period, the rats were allowed to freely ingest a powder diet (AIN-93G).
2) Implantation of Osmotic Pump
After body weight measurement, back hair was shaved under isoflurane (AbbVie GK) inhalation anesthesia, and carprofen was subcutaneously administered to the rats. Then, an incision of approximately 1 cm at the maximum was made on the cranial side in the back. An osmotic minipump Alzet (Muromachi Kikai Co., Ltd.) containing testosterone and compound 17-F or finasteride (Sigma-Aldrich Co. LLC) was subcutaneously implanted. From this osmotic pump, testosterone (3 mg/kg body weight/day) (Sigma-Aldrich Co. LLC) and compound 17-F (0.1 mg/body weight/day or 1 mg/kg body weight/day) or finasteride (0.1 mg/kg body weight/day or 1 mg/kg body weight/day) were continuously administered for 28 days. Since the implantation of the osmotic pump, the rats were allowed to freely ingest customized feed AIN-93G (Oriental Yeast Co., Ltd.) free from components derived from soybeans.
3) Photographing of Skin and Harvesting of Prostate
After a lapse of 28 days, body weights were measured, and subsequently, the rats were euthanized by blood letting under isoflurane anesthesia. Back hair was shaved, followed by photographing. Then, the abdominal cavity was opened to harvest the prostate on the ventral side. Wet weights were measured.

T1 sequence (Q92731 whole entry): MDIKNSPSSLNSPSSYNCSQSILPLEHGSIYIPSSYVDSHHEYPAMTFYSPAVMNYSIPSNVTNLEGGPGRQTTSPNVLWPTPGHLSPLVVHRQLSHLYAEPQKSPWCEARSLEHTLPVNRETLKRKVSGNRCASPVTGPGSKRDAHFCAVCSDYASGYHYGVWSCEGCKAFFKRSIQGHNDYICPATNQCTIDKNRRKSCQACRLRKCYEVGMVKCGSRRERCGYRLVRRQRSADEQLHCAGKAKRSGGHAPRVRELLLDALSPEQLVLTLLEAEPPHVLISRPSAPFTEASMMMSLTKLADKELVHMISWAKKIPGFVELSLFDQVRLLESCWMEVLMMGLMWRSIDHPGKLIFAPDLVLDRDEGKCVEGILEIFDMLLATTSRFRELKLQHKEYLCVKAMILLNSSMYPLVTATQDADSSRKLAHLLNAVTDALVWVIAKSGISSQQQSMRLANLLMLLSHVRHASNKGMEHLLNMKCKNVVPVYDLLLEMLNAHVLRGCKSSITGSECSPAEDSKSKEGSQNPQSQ

Oc1ccc(CC(C=C(F)F)c2ccc(O)cc2F)c(F)c1 (stereo not drawn) [Compound 17-F, 4,4′-(4,4-difluorobut-3-ene-1,2-diyl)bis(3-fluorophenol)]
relative light unit (RLU), transcription activation ERβ (ERβ; 0.01 pM): 0.002468 | relative light unit (RLU), transcription activation ERβ (ERβ; 0.1 pM): 0.004255 | relative light unit (RLU), transcription activation ERβ (ERβ; 1 pM): 0.01104 | relative light unit (RLU), transcription activation ERβ (ERβ; 10 pM): 0.03023 | relative light unit (RLU), transcription activation ERβ (ERβ; 100 pM): 0.03238 | relative light unit (RLU), transcription activation ERβ (ERβ; 1000 pM): 0.03342 | relative light unit (RLU), transcription activation ERβ (ERβ; 10000 pM): 0.03507 | tail skin temperature, raw value and changed temperature from the initial value ([1]; 4, 40, and 400 μg/kg subcutaneous, 3 days after the start of administration, vs negative solvent): confirmed to decrease | tail skin temperature, drug efficacy ([1]; subcutaneous, 5 days after the start of administration): temporarily disappeared | tail skin temperature, raw value and changed temperature ([1]; subcutaneous, 7 days after the start of administration): confirmed to decrease again | size of the prostate (visual, FIG. 1) [2]: Concentration-dependent decrease in the size of the prostate | weight of the prostate corrected with the body weight (FIG. 2) [2]: decreased to almost the same level as in the DMSO administration group
